Target: T1, human mPGES-1 (Homo sapiens, UniProt O14684)
T1 construct: host or cells: microsomes
T1 sequence (O14684 1-152): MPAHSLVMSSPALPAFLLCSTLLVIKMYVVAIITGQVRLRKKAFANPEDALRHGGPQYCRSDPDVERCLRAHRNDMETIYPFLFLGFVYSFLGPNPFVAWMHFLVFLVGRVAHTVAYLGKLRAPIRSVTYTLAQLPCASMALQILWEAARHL
Assay: Microsomal prostaglandin E synthase biochemical assay
Conditions: microsome preparation containing human mPGES-1; substrate PGH2 10.8 μM, GSH 2.5 mM, pH 6.8; PGE2 by HTRF; average of at least n=2
Experimental: Compounds were tested as inhibitors of microsomal prostaglandin E synthase activity in microsomal prostaglandin E synthase assays and whole cell assays. These assays measure prostaglandin E2 (PGE2) synthesis which is taken as a measure of prostaglandin E synthase activity. Microsomal prostaglandin E synthase biochemical assays used microsomal prostaglandin E synthase-1 in microsomal preparations. The source of the microsomes can be for example interleukin-1β-stimulated human A549 cells (which express human mPGES-1) or Sf9 cells transfected with plasmids encoding human mPGES-1 cDNA.
A solution of test compound was added to a diluted microsome preparation containing is human mPGES-1 and pre-incubated for 15 minutes in potassium phosphate buffer pH 6.8 with cofactor glutathione (GSH). Corresponding solutions without test compound were used as positive controls, and corresponding solutions without test compound and without microsomes were used as negative controls. The enzymatic reaction was then started by addition of the substrate PGH2 in an organic solution (dry acetonitrile).
The reaction was stopped after one minute by adding an acidic solution (pH 1.9) of ferric chloride and citrate (final concentrations 7 mM and 47 mM respectively), by which the PGH2 was sequestered (the PGH2 is reduced to mainly 12-hydroxy heptadecatrineoic acid (12-HHT) which is not detected by the subsequent PGE2 detection step). The resulting solution was then pH neutralized by addition of potassium phosphate buffer, prior to diluting an aliquot of the resulting solution in a weak potassium phosphate buffer (50 mM, pH 6.8) containing 0.2% BSA (w/v). […] The PGE2 formed was quantified by use of a commercial HTRF based kit (catalogue #62PG2PEC or #62P2APEC from Cisbio International). 100% activity was defined as the PGE2 production in positive controls subtracted by the PGE2 production in the negative controls. IC50 values were then determined using standard procedures.

| IC50 [nM] | SMILES |
| --- | --- |
| 530 | COc1ccc(S(=O)(=O)NC(=O)c2ccc(-c3cc4ccccc4o3)cc2)c(S(N)(=O)=O)c1 [Example 76, 4-methoxy-benzene-1,2-disulfonic acid 2-amide 1-(4-benzofuran-2-yl-benzoylamide)] |
| 6.5 | NS(=O)(=O)c1ccccc1S(=O)(=O)NC(=O)c1ccc(C#Cc2ccc(C(F)(F)F)cc2)nc1 [Example 43] |
| 7.8 | Cc1ccc(C#Cc2ccc(C(=O)NS(=O)(=O)c3ccccc3S(N)(=O)=O)cc2OCCC(F)F)cc1 [Example 70, 3-(3,3-Difluoropropoxy)-N-(2-sulfamoylphenylsulfonyl)-4-(p-tolylethynyl)benzamide] |
| 59 | CC(C)C#Cc1ncc(C(=O)NS(=O)(=O)c2ccccc2S(N)(=O)=O)cc1Cl [Example 44, 5-Chloro-6-(3-methylbut-1-ynyl)-N-(2-sulfamoylphenylsulfonyl)nicotinamide] |
| 24 | COc1cc(C(=O)NS(=O)(=O)c2ccccc2S(N)(=O)=O)ccc1C#Cc1ccccc1 [Example 73, 3-Methoxy-4-(phenylethynyl)-N-(2-sulfamoylphenylsulfonyl)benzamide] |
| 5 | NS(=O)(=O)c1ccccc1S(=O)(=O)NC(=O)c1ccc(-c2cc3ccccc3o2)c(OCC2CC2)c1 [Example 21, 4-(Benzofuran-2-yl)-3-(cyclopropylmethoxy)-N-(2-sulfamoylphenylsulfonyl)benzamide] |
| 100 | CC(C)C#Cc1ccc(C(=O)NS(=O)(=O)c2ccccc2S(N)(=O)=O)cc1COCC(F)(F)F [Example 56, 4-(3-Methylbut-1-ynyl)-N-(2-sulfamoylphenylsulfonyl)-3-((2,2,2-trifluoroethoxy)methyl)benzamide] |
| 31 | CC(C)C#Cc1ccc(C(=O)NS(=O)(=O)c2ccccc2S(N)(=O)=O)cc1OCCC(F)F [Example 71, 3-(3,3-Difluoropropoxy)-4-(3-methylbut-1-ynyl)-N-(2-sulfamoylphenylsulfonyl)benzamide] |
| 30 | CC(C)(C)C#Cc1ccc(C(=O)NS(=O)(=O)c2ccccc2S(N)(=O)=O)cc1OCCC(F)(F)F [Example 60, 4-(3,3-Dimethylbut-1-ynyl)-N-(2-sulfamoylphenylsulfonyl)-3-(3,3,3-trifluoropropoxy)benzamide] |
| 10 | NS(=O)(=O)c1ccccc1S(=O)(=O)NC(=O)c1cnc(C#Cc2ccc(C(F)(F)F)cc2)c(OCCC(F)(F)F)c1 [Example 48] |
| 8.4 | COc1cc(C(=O)NS(=O)(=O)c2ccccc2S(N)(=O)=O)ccc1C#Cc1ccc(Cl)cc1 [Example 15, 4-((4-Chlorophenyl)ethynyl)-3-methoxy-N-(2-sulfamoylphenylsulfonyl)benzamide] |
| 35 | CCCC(C)C#Cc1ccc(C(=O)NS(=O)(=O)c2ccccc2S(N)(=O)=O)cc1OC (stereo not shown) [Example 37, 3-Methoxy-4-(3-methylhex-1-ynyl)-N-(2-sulfamoylphenylsulfonyl)benzamide] |
| 18 | CC(C)C#Cc1ccc(C(=O)NS(=O)(=O)c2ccccc2S(N)(=O)=O)cc1OCCC(F)(F)F [Example 45, 4-(3-Methylbut-1-ynyl)-N-(2-sulfamoylphenylsulfonyl)-3-(3,3,3-trifluoropropoxy)benzamide] |
| 4.5 | NS(=O)(=O)c1ccccc1S(=O)(=O)NC(=O)c1ccc(-c2cc3ccccc3o2)c(OCC(F)F)c1 [Example 7, 4-(Benzofuran-2-yl)-3-(2,2-difluoroethoxy)-N-(2-sulfamoylphenylsulfonyl)benzamide] |
| 6.5 | NS(=O)(=O)c1ccccc1S(=O)(=O)NC(=O)c1cnc(C#Cc2ccc(C(F)(F)F)cc2)c(F)c1 [Example 47, 5-Fluoro-N-(2-sulfamoylphenylsulfonyl)-6-((4-(trifluoromethyl)phenyl)ethynyl)nicotinamide] |
| 220 | NS(=O)(=O)c1ccccc1S(=O)(=O)NC(=O)c1ccc(C#CC(O)(C2CC2)C2CC2)cc1 [Example 31, 4-(3,3-Dicyclopropyl-3-hydroxyprop-1-ynyl)-N-(2-sulfamoylphenylsulfonyl)benzamide] |

| IC50 [nM] | SMILES |
| --- | --- |
| 5 | Cc1ccc(C#Cc2ccc(C(=O)NS(=O)(=O)c3ccccc3S(N)(=O)=O)cc2OCC(F)F)cc1 [Example 4, 3-(2,2-Difluoroethoxy)-N-(2-sulfamoylphenylsulfonyl)-4-(p-tolylethynyl)benzamide] |
| 4.4 | NS(=O)(=O)c1ccccc1S(=O)(=O)NC(=O)c1ccc(C#Cc2cccc(Cl)c2)cc1 [Example 12, 4-((3-Chlorophenyl)ethynyl)-N-(2-sulfamoylphenylsulfonyl)benzamide] |
| 9.6 | NS(=O)(=O)c1ccccc1S(=O)(=O)NC(=O)c1ccc(C#CC2CCCC2)c(OCCOCC(F)(F)F)c1 [Example 67, 4-(Cyclopentylethynyl)-N-(2-sulfamoylphenylsulfonyl)-3-(2-(2,2,2-trifluoroethoxy)ethoxy)benzamide] |
| 17 | Cc1cc(C(=O)NS(=O)(=O)c2ccccc2S(N)(=O)=O)ccc1C#CC(C)C [Example 50, 3-Methyl-4-(3-methylbut-1-ynyl)-N-(2-sulfamoylphenylsulfonyl)benzamide] |
| 12 | NS(=O)(=O)c1ccccc1S(=O)(=O)NC(=O)c1ccc(C#CC2CCCC2)c(OCCC(F)F)c1 [Example 68, 4-(Cyclopentylethynyl)-3-(3,3-difluoropropoxy)-N-(2-sulfamoylphenylsulfonyl)benzamide] |
| 8.2 | NS(=O)(=O)c1ccccc1S(=O)(=O)NC(=O)c1ccc(C#Cc2ccccc2)c(OCC(F)F)c1 [Example 3, 3-(2,2-Difluoroethoxy)-4-(phenylethynyl)-N-(2-sulfamoylphenylsulfonyl)benzamide] |
| 9.4 | NS(=O)(=O)c1ccccc1S(=O)(=O)NC(=O)c1ccc(C#CC2CCCC2)c(OCCC(F)(F)F)c1 [Example 66, 4-(Cyclopentylethynyl)-N-(2-sulfamoylphenylsulfonyl)-3-(3,3,3-trifluoropropoxy)benzamide] |
| 6.4 | Cc1ccccc1C#Cc1ccc(C(=O)NS(=O)(=O)c2ccccc2S(N)(=O)=O)cc1 [Example 8, N-(2-Sulfamoylphenylsulfonyl)-4-(o-tolylethynyl)benzamide] |
| 54 | CC(C)Oc1cc(C(=O)NS(=O)(=O)c2ccccc2S(N)(=O)=O)ccc1C#Cc1ccc(C(F)(F)F)cc1 [Example 33, 3-Isopropoxy-N-(2-sulfamoylphenylsulfonyl)-4-((4-(trifluoromethyl)phenyl)ethynyl)benzamide] |
| 50 | CC(C)C#Cc1ccc(C(=O)NS(=O)(=O)c2ccccc2S(N)(=O)=O)cc1OCC(F)F [Example 52, 3-(2,2-Difluoroethoxy)-4-(3-methylbut-1-ynyl)-N-(2-sulfamoylphenylsulfonyl)benzamide] |
| 14 | CCCC(C)C#Cc1ccc(C(=O)NS(=O)(=O)c2ccccc2S(N)(=O)=O)cc1 (stereo not shown) [Example 40, 4-(3-Methylhex-1-ynyl)-N-(2-sulfamoylphenylsulfonyl)benzamide] |
| 2900 | NS(=O)(=O)c1ccccc1S(=O)(=O)NC(=O)c1ccc(CN2CC(F)(F)C(F)(F)C2)cc1 [Example 24, N-(2-Sulfamoylphenylsulfonyl)-4-((3,3,4,4-tetrafluoropyrrolidin-1-yl)methyl)benzamide] |
| 26 | NS(=O)(=O)c1cc(O)ccc1S(=O)(=O)NC(=O)c1ccc(-c2cc3ccccc3o2)cc1 [Example 75, 4-Hydroxy-benzene-1,2-disulfonic acid 2-amide 1-(4-benzofuran-2-yl-benzoylamide)] |
| 200 | CC(C)C#Cc1ncc(C(=O)NS(=O)(=O)c2ccccc2S(N)(=O)=O)cc1F [Example 46, 5-Fluoro-6-(3-methylbut-1-ynyl)-N-(2-sulfamoylphenylsulfonyl)nicotinamide] |
| 13 | CC(C)C#Cc1ncc(C(=O)NS(=O)(=O)c2ccccc2S(N)(=O)=O)cc1OCCC(F)(F)F [Example 49, 6-(3-Methylbut-1-ynyl)-N-(2-sulfamoylphenylsulfonyl)-5-(3,3,3-trifluoropropoxy)nicotinamide] |
| 9.3 | NS(=O)(=O)c1ccccc1S(=O)(=O)NC(=O)c1ccc(C#Cc2ccccc2)c(OCCOCC(F)(F)F)c1 [Example 63, 4-(Phenylethynyl)-N-(2-sulfamoylphenylsulfonyl)-3-(2-(2,2,2-trifluoroethoxy)ethoxy)benzamide] |

| SMILES | IC50 [nM] |
| --- | --- |
| NS(=O)(=O)c1ccccc1S(=O)(=O)NC(=O)c1ccc(C#CC2CCCC2)c(OCCCC(F)(F)F)c1 [Example 69, 4-(Cyclopentylethynyl)-N-(2-sulfamoylphenylsulfonyl)-3-(4,4,4-trifluorobutoxy)benzamide] | 11 |
| CC(C)C#Cc1ccc(C(=O)NS(=O)(=O)c2ccccc2S(N)(=O)=O)cc1OCCCC(F)(F)F [Example 64, 4-(3-Methylbut-1-ynyl)-N-(2-sulfamoylphenylsulfonyl)-3-(4,4,4-trifluorobutoxy)benzamide] | 15 |

— US20100292279A1, “Bis-(Sulfonylamino) Derivatives in Therapy” (ASTRAZENECA AB, priority 2009, published 2010)
